This assay deals with diabetic mice. In words: Reduction of blood glucose in diabetic mice. It counts as in vivo. Particulars: 5 to 10% of the standard injection (3.5 and 1.75 mg kg-1 as printed in SI), commercial Humalog, subcutaneous, STZ-diabetic male NODscid mice 15-18 week old; mean ± SD of 4 biological replicates (Fig. S2). As for the experimental part: To verify bioactivity, lispro variants were injected subcutaneously into diabetic mice, and blood glucose was monitored over 2.5 h. Mouse models allow determination of activity but not time to onset of action ([27]). […] As expected, all lispro variants retained activity (Fig. 2A).
Figure 2 Biological activity and CD spectroscopy of lispro variants.A, lispros were injected subcutaneously into diabetic mice, and blood glucose was measured over time after injection. The data presented here represent the mean ± SD of 3 to 6 biological replicates. B–E, far-UV circular dichroism spectra (60 μM lispro in […] phosphate buffer, pH 8.0). […] 4R-F, 4R-fluoroproline; 4S-F, 4S-fluoroproline.
Experiments were conducted according to procedures approved by the Institutional Animal Care and Use Committee at the City of Hope. Adult (8–12 week old) male NODscid mice (Jackson Laboratory; stock # 001303) were injected intraperitoneally for three consecutive days with freshly prepared streptozotocin (45 mg kg^−1 body weight, suspended in 100 mM sodium citrate buffer, pH 4.5); diabetes was confirmed by the detection of high glucose levels (200–600 mg dL^−1) as measured by a glucomonitor (Freestyle, Abbott Diabetes Care). […] Blood glucose was measured from blood sampled from the lateral tail vein. […]
into the matrix solution (α -cyanohydroxycinnamic acid in 50% ACN, 0.1% TFA) and analyzed by […]

The results in this text go back to PMC11154709, “4S-fluorination of ProB29 in insulin lispro slows fibril formation” (The Journal of Biological Chemistry, 2024).

For “insulin lispro: fast-acting insulin with inversion of the residues ProB28 and LysB29; Humalog, Eli Lilly [reference compound]”, the “reduction of blood glucose at lower lispro doses” value is on record as “did not similarly reduce blood glucose in diabetic mice”.
